US20080171710A1, “The Redox/Fyn/c-Cbl Pathway” (priority 2007, published 2008)
Where two headings read alike, the source gives them in different places.

Legend:
[1] = test system: TrkC; type: cell-based, rat; settings: for levels of TrkC: O-2A/OPCs in NT-3, 24 hr exposure
From the text: (§1) Anti-phosphorylated Erk monoclonal, anti-Erk monoclonal, anti-TrkC polyclonal anti-Fyn polyclonal, anti-EGFR polyclonal, anti-c-Met polyclonal, anti-phospho-tyrosine monoclonal, and anti-PDGFRα polyclonal antibodies were obtained from Santa Cruz Biotechnology (Santa Cruz, Calif., United States). Anti-c-Cbl monoclonal antibody was obtained from BD PharMingen (San Diego, Calif., United States). Anti-phosphorylated Akt monoclonal and anti-Akt polyclonal antibodies were obtained from Cell Signaling Technology (Beverly, Mass., United States). Anti-phosphorylated PDGPRα polyclonal antibody was obtained from Biosource (Carlsbad, Calif., United States). The cell culture samples were collected and lysed in RAPI buffer, whereas dissected tissue samples were sonicated in RAPI buffer. Samples were resolved on SDS-PAGE gels and transferred to PVDF membranes (PerkinElmer Life Science. Wellesley, Mass., United States), After being blocked in 5% skim milk in PBS containing 0.1% Tween 20, membranes were incubated with a primary antibody, followed by incubation with an HRP-conjugated secondary antibody (Santa Cruz Biotechnology). Membranes were visualized using Western Blotting Luminol Reagent (Santa Cruz Biotechnology). All analyses of signaling pathway components were conducted in the presence of ligand for the receptor pathway under analysis (either PDGF-AA for PDGFRα, NT-3 or TrkC, HGF for c-Met, or EGF for EGFR).

[2] = test system: c-Met; type: cell-based, rat; settings: for c-Met levels: O-2A/OPCs in HGF, 24 hr exposure
From the text: as §1

[3] = test system: Erk1/2; type: cell-based, rat; settings: for Erk1/2 phosphorylation caused by PDGF: co-exposure 24 hr, TH, BMP4, FGF-2 or NT-3 (10 ng/ml); for NT-3-stimulated Erk1/2 phosphorylation: co-exposure to TH, BMP-4 or FGF-2
Procedure: (§2) Cells were deprived of PDGF-AA for 5 h before re-exposure to PDGF-AA (10 ng/ml) for 1 h for Western blot or 6 h for luciferase assays of pathway activation. Transient transfection was performed using Fugene6 (Roche, Basel, Switzerland ) transfection solution according to the manufacturer's protocol. For the luciferase assay, cells seeded in 12-well plates were transfected with a reporter plasmid SRE-Luc(firefly) or NF-κB-Luc(firefly) (BD-Clontech, Palo Alto, Calif., United States) and an internal control plasmid pRLSV40-LUC. Analyses of luciferase activity were performed according to the protocol of the Dual Luciferase Assay System (Promega, Madison, Wis., United States), which uses an internal control of Renilla luciferase for quantification, and relative light units were measured using a luminometer.
as §1

[4] = test system: c-Cbl; type: cell-based, rat; settings: for effect on MeHg-induced c-Cbl phosphorylation: added 1 h before MeHg
Procedure: For the co-immunoprecipitation assay, anti-c-Cbl monoclonal antibody (BD PharMingen) or anti-PDGFRα polyclonal antibody (Santa Cruz Biotechnology) was added to the pre-cleared cell lysates (250 μg of total protein), and the mixtures were gently rocked for 2 h at 4° C. A total of 30 μl of protein A/G agarose was then added to the mixture followed by rotating at 4° C. overnight. The protein A/G agarose was then spun down and washed thoroughly three times. The precipitates were resolved on an 8% SDS-PAGE gel and then were subjected to Western blot analysis using an anti-p-Tyr (for c-Cbl phosphorylation assay) or ubiquitin (for PDGFR ubiquitylation assay) antibody (Santa Cruz Biotechnology).

[5] = test system: SRE-luciferase reporter; assay: SRE-luciferase reporter assay; type: cell-based, rat; settings: PDGF plus TH or BMP-4 (10 ng/ml), 24 hr
Procedure: as §2

[6] = test system: PDGFRα; type: cell-based, rat; settings: for absolute levels of PDGFRα: O-2A/OPCs in PDGF, 24 hr exposure; for effect on MeHg-induced reductions in levels of PDGFRα: together with MeHg; for effect on Pb- and paraquat-induced reductions in levels of PDGFRα: together with Pb (1 μM) or paraquat (5 μM)
[7] = molecular target: T1, Fyn (Rattus norvegicus, UniProt Q62844); type: cell-based; settings: for effect on MeHg-induced Fyn activation: added 1 h before MeHg
T1 construct: 250 μg of total cell lysates were immunoprecipitated with anti-Fyn antibody; endogenous in cells; host or cells: primary rat O-2A/OPCs
Procedure: Fyn kinase activity was quantified using the Universal Tyrosine Kinase Assay Kit (Takara, Madison, Wis., United States). O-2A/OPCs exposed to different treatments were solubilized with an equal volume of the extraction buffer provided with the kit for 15 min, and the resulting lysates were centrifuged at 13,000×g for 15 min at 4° C.; 250 μg of total cell lysates were immunoprecipitated with anti-Fyn antibody (Santa Cruz Biotechnology). Following immunoprecipitation, Fyn immune complexes were washed four times with extraction buffer, and then Fyn kinase activities of each sample were assayed using the kit according to the manufacturer's instructions.

[8] = test system: EGFR; type: cell-based, rat; settings: MeHg, Pb or paraquat
From the text: as §1

[9] = test system: PDGFRα; assay: PDGFRα phosphorylation (Western blot, anti-PDGFRα(pY742)); type: cell-based, rat; settings: 30 nM MeHg; 1 μM Pb; 5 μM paraquat
From the text: The cells were then collected and lysed for Western blotting. […] Cells were lysed for Western blot analysis using anti-PDGFRα(pY742) antibody. The membranes were de-probed and then re-probed with antibody against total PDGFRα and anti-β-tubulin antibody. […]
as §1

[10] = test system: O-2A/OPCs; assay: Cell death of O-2A/OPCs on exposure; type: cell-based, rat
Procedure: To generate sufficient numbers of cells for biochemical analysis, cells, were expanded through one to two passages in PDGF+FGF-2 before replating in the presence of PDGF alone. When cells achieved approximately 50% confluence, MeHg, Pb, or paraquat was added to their medium at concentrations indicated. Doses for the toxicants were chosen on the basis of dose-response curves to identify sub-lethal exposure levels, as a reflection of blood and brain toxicant levels of these compounds and, where applicable, on the basis of previous reports. All toxicant concentrations examined were confirmed to cause death of less than 5% of cells over the time course of the experiment.

[11] = test system: O-2A/OPCs; assay: Intracellular ROS / redox state measurement; type: cell-based, rat; settings: 1 μM Pb or 5 μM paraquat; dyes dihydro-chloromethyl-rosamine or dihydro-calcein-AM
Procedure: Cells were plated in 96-well microplates and grown to about 60% continence. […] Cells were then washed once with HBSS and growth medium to remove free probe. Then, fresh growth medium was added and a baseline fluorescence reading was taken prior to treatment. For NAC pre-treatment. […] Fluorescence was measured in a Wallac 1420 Victor2 multilabel counter (PerkinElmer) using excitation and emission wavelengths of 485 nm and 535 nm, respectively, at different time courses as indicated in the figures. Results are presented as the value change from baseline by the formula (Ftexp−Ftbase)/Ftbase normalized with the control group, where Ftexp=fluorescence at any given time during the experiment in a give well and Ftbase=baseline fluorescence of the same well.

[12] = test system: O-2A/OPCs; assay: In vitro BrdU incorporation assay; type: cell-based, rat; settings: with TMX, 2 days
Procedure: Cell proliferation was assessed by bromodeoxyuridine (BrdU) incorporation and by using the mouse anti-BrdU mAb IgGl (1:100; Sigma) to label dividing cells. Stained cells on cover slips were rinsed two times in 1×PBS, counterstained with 4′6-diamidino-2-phenylindole (DAPI; Molecular Probes, Eugene, Oreg., United States) and mounted on glass slides with Fluoromount (Molecular Probes). Staining against surface proteins was performed on cultures of living cells or on cells fixed with 2% paraformaldehyde. Staining with intracellular antibodies was performed by permeabilizing cells with ice-cold methanol for 4 min or by using 0.5% Triton for 15 mm on 2% parafomaldhyde-fixed cells. Antibody binding was detected with appropriate fluorescent dye-conjugated secondary antibodies at 10 μg/ml (Southern Biotech, Birmingham, Ala., United States) or Alexa Fluor-coupled antibodies at a concentration of 1 μg/ml (Molecular Probes), applied for 20 min. Anti-BrdU monoclonal antibody was obtained from Sigma.

[13] = test system: Fyn; type: cell-based, rat; settings: exposure to Aβ (5-20 μM)
[14] = O-2A/OPCs induced to divide by PDGF, 3-4 hr exposure
[15] = 30 nM MeHg, 1 μM Pb, 5 μM paraquat
[16] = added 1 h before Pb or paraquat
[17] = NAC 1 mM, PP1 100 nM or ICI 182,780 200 nM with TMX

T1 sequence (Q62844 whole entry): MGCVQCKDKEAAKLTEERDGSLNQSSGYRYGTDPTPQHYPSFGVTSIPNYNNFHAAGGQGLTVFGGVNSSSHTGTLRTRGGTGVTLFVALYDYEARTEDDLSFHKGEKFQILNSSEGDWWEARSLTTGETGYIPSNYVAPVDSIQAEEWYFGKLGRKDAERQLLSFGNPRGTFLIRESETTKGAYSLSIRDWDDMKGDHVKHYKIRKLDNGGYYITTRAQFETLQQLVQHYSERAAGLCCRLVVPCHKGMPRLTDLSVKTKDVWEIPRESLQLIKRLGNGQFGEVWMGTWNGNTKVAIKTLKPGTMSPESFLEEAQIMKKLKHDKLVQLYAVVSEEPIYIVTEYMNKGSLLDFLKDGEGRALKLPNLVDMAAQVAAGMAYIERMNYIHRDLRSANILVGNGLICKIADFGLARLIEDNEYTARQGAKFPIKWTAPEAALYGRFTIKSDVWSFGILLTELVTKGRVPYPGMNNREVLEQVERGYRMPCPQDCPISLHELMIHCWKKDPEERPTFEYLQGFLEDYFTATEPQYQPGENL

bone morphogenetic protein-4 [BMP-4]
levels of TrkC [1]: unaffected
c-Met levels [2]: decreases
Erk1/2 phosphorylation caused by PDGF [3]: reduce
NT-3-stimulated Erk1/2 phosphorylation [3]: not affected
c-Cbl phosphorylation [4, 14]: increased phosphorylation
SRE-reporter gene expression [5]: greatly reduces
absolute levels of PDGFRα [6]: reductions
fyn activation ([7]; differentiation inducers TH and BMP): activated

C[C@@H]1C[C@@H]([C@H](O)CC2CC(=O)NC(=O)C2)C(=O)[C@@H](C)C1 [cycloheximide]
levels of PDGFRα on inhibition of protein synthesis ([6]; cycloheximide 1 μg/ml): reductions

fibroblast growth factor-2 [FGF-2]
levels of TrkC [1]: unaffected
c-Met levels [2]: increased
Erk1/2 phosphorylation caused by PDGF [3]: enhances signaling
NT-3-stimulated Erk1/2 phosphorylation [3]: not affected
c-Cbl phosphorylation [4, 14]: caused a reduction
levels of PDGFRα in the presence of actinomycin D ([6]; FGF-2 10 ng/ml and PDGF, 24 hr): still show increased levels
absolute levels of PDGFRα [6]: increase

[Pb] [Pb, lead]
levels of TrkC after toxicant exposure ([1]; MeHg, Pb or paraquat): neither Pb or paraquat caused a reduction
levels of c-Met after toxicant exposure ([2]; MeHg, Pb or paraquat): also reduced
levels of EGFR after toxicant exposure [8]: also reduced
PDGF-induced Erk1/2 phosphorylation after toxicant exposure ([3]; 30 nM MeHg 24 h, 1 μM Pb, 5 μM paraquat): reduced levels of Erk1/2 phosphorylation
c-Cbl phosphorylation after toxicant exposure [4, 15]: increased phosphorylation of c-Cbl
phosphorylation of PDGFRα after toxicant exposure [9]: reduced
cell death at the concentrations used ([10]; MeHg at lower concentrations (not above 50 nM), 1 μM Pb, 5 μM paraquat): did not cause cell death
total levels of PDGFRα after toxicant exposure ([6]; MeHg 30 nM, 1 μM Pb, 5 μM paraquat): reduced
cells more oxidized (intracellular redox state) [11]: approximately 20%
Fyn activation after toxicant exposure [7, 15]: activation of Fyn

CN(C)CCCn1cc(C2=C(c3c[nH]c4ccccc34)C(=O)NC2=O)c2ccccc21 [BIM-1, bisindoleylmaleimide I]
effect on MeHg-induced c-Cbl phosphorylation [4]: did not prevent
effect on Pb- and paraquat-induced c-Cbl phosphorylation [4, 16]: did not prevent
effect on MeHg-induced reductions in levels of PDGFRα [6]: did not protect
effect on Pb- and paraquat-induced reductions in levels of PDGFRα [6]: did not protect
effect on MeHg-induced Fyn activation [7]: did not prevent
effect on Pb- and paraquat-induced Fyn activation [7, 16]: did not prevent

CC(C)(C)n1nc(-c2ccc(Cl)cc2)c2c(N)ncnc21 [PP2]
effect on MeHg-induced c-Cbl phosphorylation [4]: blocked
effect on MeHg-induced Fyn activation [7]: blocked

N[C@@H](Cc1cc(I)c(Oc2ccc(O)c(I)c2)c(I)c1)C(=O)O [TH, thyroid hormone, reference compound]
Erk1/2 phosphorylation caused by PDGF [3]: reduce
NT-3-stimulated Erk1/2 phosphorylation [3]: not affected
SRE-reporter gene expression [5]: greatly reduces
absolute levels of PDGFRα [6]: reductions

C[C@]12CC[C@@H]3c4ccc(O)cc4C[C@@H](CCCCCCCCC[S+]([O-])CCCC(F)(F)C(F)(F)F)[C@H]3[C@@H]1CC[C@@H]2O (some centres unmarked) [ICI 182780]
effect on TMX-induced activation of c-Cbl [4, 17]: prevented
effect on TMX effect on cell proliferation [12]: blocked
effect on TMX-induced reductions in levels of PDGFRα [6, 17]: rescued
effect on TMX-induced activation of Fyn [7, 17]: prevented

O=C1N[C@H](C(=O)O)CS1 [proeysteinc, procysteine]
effect on Pb- and paraquat-induced reductions in levels of PDGFRα [6]: protected

Aβ(1-42): amino acids 1-42 of amyloid beta protein
Erk1/2 phosphorylation induced by NT-3 ([3]; exposure to Aβ(1-42)): had no effect
PDGF-mediated induction of Erk1/2 phosphorylation ([3]; exposure to Aβ(1-42)): inhibited
c-Cbl phosphorylation ([4]; exposure to Aβ (5-20 μM)): phosphorylated
Fyn phosphorylation [13]: phosphorylated
cell death ([10]; 5-10 μM Aβ(1-42), 48 hrs): little cell death
concentration inducing progenitor cell death ([10]; O-2A/OPCs): 20 µM
levels of PDGFRα ([6]; exposure to Aβ): reduced

B1: scrambled (Scr) RNAi: scrambled negative control for c-Cbl RNAi, SEQ ID NO: 7 and 8 (nucleic acid)
chain 1: TTTAAACCCGGCCCTTTGGTTCAAGAGACCAAAGGGCCGGGTTTAAATTTTTT
chain 2: AATTAAAAAATTTAAACCCGGCCCTTTGGTCTCTTGAACCAAAGGGCCGGGTTTAAAGGCC
effect on MeHg-induced reductions in levels of PDGFRα [6]: had no effect

B2: neurotrophin-3 (protein, UniProt P20783 139-257, looked up)
Neurotrophin-3: YAEHKSHRGEYSVCDSESLWVTDKSSAIDIRGHQVTVLGEIKTGNSPVKQYFYETRCKEARPVKNGCRGIDDKHWNSQCKTSQTYVRALTSENNKLVGWRWIRIDTSCVCALSRKIGRT
notes: signaling molecule that enhances self-renewal
levels of TrkC [1]: unaffected
c-Met levels [2]: increased
Erk1/2 phosphorylation caused by PDGF [3]: enhances signaling
c-Cbl phosphorylation [4, 14]: caused a reduction
absolute levels of PDGFRα [6]: increase
